Results published in paper PMC9328652, “A novel class of fast‐acting antimalarial agents: Substituted 15‐membered azalides” (British Journal of Pharmacology, 2020).

System: human erythrocytes
Test: Accumulation and retention in human erythrocytes
Assay type: in vitro ADME
Conditions: after washout
Protocol: The human biological samples were sourced ethically, and their research use was in accord with the terms of the informed consents under an IRB/EC approved protocol. Human erythrocytes were isolated from fresh whole blood. Blood cells were removed from the plasma by centrifugation at 1,650 g and 4°C for 15 min. The pellet was re‐suspended in saline and centrifuged at 3,000 g and at room temperature for 10 min. Supernatant and the upper part of pellet containing leukocytes were discarded. The procedure was repeated three to four times until there were no traces of leukocytes. The quality of erythrocyte isolation was determined on Sysmex SF‐3000 haematological analyser. To measure compound accumulation in cells, erythrocytes (2 × 10^9) were re‐suspended in 3‐ml RPMI 1640 (Gibco, Invitrogen) medium containing 20 μM of tested compounds and incubated at 37°C for 3 or 24 h. Cells were subsequently washed twice in ice‐cold PBS (Sigma) followed by centrifugation at 3,000 g and 4°C for 10 min. The cells were lysed by freezing in 0.5% Triton X‐100 (Sigma) in deionized water. […] Concentrations in lysates were determined by LC–MS/MS. […] To determine intracellular concentration, measured concentration in lysates was normalized to the volume of erythrocyte pellet in samples.

CC[C@H]1OC(=O)[C@H](C)[C@@H](O[C@H]2C[C@@](C)(OC)[C@@H](O)[C@H](C)O2)[C@H](C)[C@@H](O[C@@H]2O[C@H](C)C[C@H](N(C)C)[C@H]2O)[C@](C)(O)C[C@@H](C)CN(C)[C@H](C)[C@@H](O)[C@]1(C)O [Azithromycin, reference compound]
initially accumulated amount retained in the erythrocytes: 10%
